Test [1] deals with histidine tagged recombinant human full-length Bruton Agammaglobulinemia Tyrosine Kinase (Btk) (Homo sapiens (Human), UniProt Q06187). Briefly: Btk kinase inhibition assay, Method A (fluorescence polarization, KinEASE FP Fluorescein Green). The conditions noted are these: 10 μM ATP, 250 μM substrate, 60 minutes room temperature, Ki calculated from IC50 by Cheng-Prusoff equation. In kind it is biochemical. On the procedure: Btk Kinase Inhibition Assays
Fluorescence polarization-based kinase assays were performed in 384 well-plate format using histidine tagged recombinant human full-length Bruton Agammaglobulinemia Tyrosine Kinase (Btk) and a modified protocol of the KinEASE™ FP Fluorescein Green Assay supplied from Millipore®. Kinase reaction were performed at room temperature for 60 minutes in presence of 250 μM substrate, 10 μM ATP and variable test article concentrations. The reaction was stopped with EDTA/kinease detection reagents. Phosphorylation of the substrate peptide was detected by fluorescence polarization measured with a Tecan 500 instrument. From the dose-response curve obtained, the IC50 was calculated using Graph Pad Prisms® using a non linear fit curve. The Km for ATP on each enzyme was experimentally determined and the Ki values calculated using the Cheng-Prusoff equation (see: Cheng Y, Prusoff W. H. (1973) Relationship between the inhibition constant (K1) and the concentration of inhibitor which causes 50% inhibition (I50) of an enzymatic reaction”. Biochem. Pharmacol. 22 (23): 3099-108). ki values are reported in Tables 2a and 2b: […]

The test system of test [2] is splenocytes. Briefly: Splenic cell proliferation assay (anti-IgM stimulated, Cell Titer-Glo). It counts as cell-based. The note with it: Splenocyte; CD1 mouse splenocytes, 1 h pre-treatment, 2.5 ug/ml anti-IgM F(ab')2 for 72 h; read-out: EC50 (nM), Inhibition of splenic cell proliferation. The source says:
Cellular Assay Splenic Cell Proliferation Assay
Proliferation of splenocytes in response to anti-IgM can be blocked by inhibition of Btk. Splenocytes were obtained from 6 week old male CD1 mice (Charles River Laboratories Inc.). Mouse spleens were manually disrupted in PBS and filtered using a 70 um cell strainer followed by ammonium chloride red blood cell lysis. Cells were washed, resuspended in Splenocyte Medium (HyClone RPMI supplemented with 10% heat-inactivated FBS, 0.5× non-essential amino acids, 10 mM HEPES, 50 uM beta mercaptoethanol) and incubated at 37° C., 5% CO2 for 2 h to remove adherent cells. Suspension cells were seeded in 96 well plates at 50,000 cells per well and incubated at 37° C., 5% CO2 for 1 h. Splenocytes were pre-treated in triplicate with 10,000 nM curves of Formula I compounds for 1 h, followed by stimulation of cell proliferation with 2.5 ug/ml anti-IgM F(ab′)2 (Jackson ImmunoResearch) for 72 h. Cell proliferation was measured by Cell Titer-Glo Luminescent Assay (Promega). EC50 values (50% proliferation in the presence of compound as compared to vehicle treated controls) were calculated from dose response compound curves using GraphPad Prism Software.
A general note: In ATP-based viability assays light output follows the ATP content of the culture.

Test [3] deals with human BTK kinase (hBTK) (Homo sapiens (Human), UniProt Q06187). Briefly: Btk kinase inhibition assay, Method B (KinaseProfiler radiometric protein kinase assay, Eurofins). The conditions noted are these: [γ-33P-ATP], 40 minutes room temperature. It counts as biochemical. On the procedure:
In vitro potency of selected compound was defined against human BTK kinase (hBTK) using KinaseProfiler radiometric protein kinase assays performed at Eurofins Pharma Discovery Services UK Limited.
hBTK kinase is diluted in buffer and all compounds were prepared to 50× final assay concentration in 100% DMSO. This working stock of the compound was added to the assay well as the first component in the reaction, followed by the remaining components as detailed in the assay protocol listed above. The reaction was initiated by the addition of the MgATP mix. The kinase reaction was performed at room temperature for 40 minutes in presence of 250 μM substrate, 10 mM MgAcetate, [γ-33P-ATP] (specific activity approx. 500 cpm/pmol, concentration as required) and variable test article concentrations. The ATP concentrations in the assays were with 15 μM of the apparent. The reaction was stopped by the addition of 3% phosphoric acid solution. 10 μL of the reaction is then spotted onto a P30 filtermat and washed three times for 5 minutes in 75 mM phosphoric acid and once in methanol prior to drying and scintillation counting. In addition positive control wells contain all components of the reaction, except the compound of interest; however, DMSO (at a final concentration of 2%) were included in these wells to control for solvent effects as well as blank wells contain all components of the reaction, with a reference inhibitor replacing the compound of interest. This abolishes kinase activity and establishes the base-line (0% kinase activity remaining). The potency of each compound was reported by estimating the EC50.

human BTK kinase (hBTK), sequence (Q06187 whole entry): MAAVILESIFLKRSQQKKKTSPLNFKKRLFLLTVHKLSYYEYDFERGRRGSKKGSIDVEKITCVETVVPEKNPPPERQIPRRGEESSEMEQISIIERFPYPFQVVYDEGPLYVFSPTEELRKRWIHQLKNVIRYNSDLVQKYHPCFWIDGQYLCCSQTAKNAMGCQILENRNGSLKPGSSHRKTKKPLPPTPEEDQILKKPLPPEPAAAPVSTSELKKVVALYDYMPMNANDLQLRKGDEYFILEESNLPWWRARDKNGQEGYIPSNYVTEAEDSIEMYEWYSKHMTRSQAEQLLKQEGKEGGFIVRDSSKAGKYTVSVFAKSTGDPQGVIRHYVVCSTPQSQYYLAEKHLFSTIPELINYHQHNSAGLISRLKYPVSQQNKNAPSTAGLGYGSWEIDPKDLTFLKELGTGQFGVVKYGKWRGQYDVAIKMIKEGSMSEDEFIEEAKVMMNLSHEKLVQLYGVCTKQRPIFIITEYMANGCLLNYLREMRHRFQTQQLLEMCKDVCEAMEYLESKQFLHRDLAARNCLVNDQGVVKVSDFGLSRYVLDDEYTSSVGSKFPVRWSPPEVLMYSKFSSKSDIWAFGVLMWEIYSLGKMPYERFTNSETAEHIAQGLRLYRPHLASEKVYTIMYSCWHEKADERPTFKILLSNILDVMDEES
histidine tagged recombinant human full-length Bruton Agammaglobulinemia Tyrosine Kinase (Btk), sequence (Q06187 whole entry): as above

The Ki is the dissociation constant of the complex between target and ligand, obtained from inhibition or displacement. With `Cc1ncc(COc2cc(F)cc(Oc3ccc(-c4nc(C(C)C)n5ccnc(N)c45)cc3)c2)s1` [Compound 1], the Ki in test [1] was below 100 nM. The EC50 in test [2] is below 100 nM.

For the compound `Cc1ncc(COc2cc(F)cc(Oc3ccc(-c4nc(C(C)C)n5ccnc(N)c45)cc3)c2)cn1` [Compound 2], the Ki in test [1] was below 100 nM. In test [2], the EC50 was below 100 nM.

`Cc1ccc(COc2cc(F)cc(Oc3ccc(-c4nc(C(C)C)n5ccnc(N)c45)cc3)c2)cn1` [Compound 3]: in test [1], the Ki is below 100 nM. Besides, the EC50 in test [2] is below 100 nM.

Take `Cc1ncc(COc2cc(F)cc(Oc3ccc(-c4nc(C5CCCC5)n5ccnc(N)c45)cc3)c2)s1` [Compound 4]: the inhibition constant Ki in test [1] is below 100 nM. In addition, the EC50 in test [2] is below 100 nM.

Consider `Cc1ccc(COc2cc(F)cc(Oc3ccc(-c4nc(C5CCCC5)n5ccnc(N)c45)cc3)c2)cn1` [Compound 5], for which the inhibitory constant (Ki) in test [1] is below 100 nM. Also, in test [2], the EC50 was below 100 nM.

As for `Cc1ncc(COc2cc(F)cc(Oc3ccc(-c4nc(C5CCCC5)n5ccnc(N)c45)cc3)c2)cn1` [Compound 6], the Ki in test [1] was below 100 nM. The EC50 in test [2] was below 100 nM.

As to `Cc1ncc(COc2cc(F)cc(Oc3ccc(-c4nc(C5CCOCC5)n5ccnc(N)c45)cc3)c2)s1` [Compound 7], the Ki in test [1] was below 100 nM. Also, the EC50 in test [2] was below 100 nM.

Turning to `Cc1ccc(COc2cc(F)cc(Oc3ccc(-c4nc(C5CCOCC5)n5ccnc(N)c45)cc3)c2)cn1` [Compound 8], the inhibition constant Ki in test [1] is below 100 nM. For the same compound, the EC50 in test [2] is below 100 nM.

As to `Cc1ncc(COc2cc(F)cc(Oc3ccc(-c4nc(C5CCOCC5)n5ccnc(N)c45)cc3)c2)cn1` [Compound 9], the inhibition constant Ki in test [1] was below 100 nM. The EC50 in test [2] is below 100 nM.

On to `Cc1ncc(COc2cc(F)cc(Oc3ccc(-c4nc(C5CC5)n5ccnc(N)c45)cc3)c2)s1` [Compound 10], for which the inhibition constant Ki in test [1] is below 100 nM. The EC50 in test [2] was below 100 nM.

On to `Cc1ncc(COc2cc(F)cc(Oc3ccc(-c4nc(C5CC5)n5ccnc(N)c45)cc3)c2)cn1` [Compound 11], for which, in test [1], the inhibition constant Ki was below 100 nM. Moreover, the EC50 in test [2] is below 100 nM.

For `Cc1ncc(COc2cc(F)cc(Oc3ccc(-c4nc(C5(C)COC5)n5ccnc(N)c45)cc3)c2)cn1` [Compound 12], in test [1], the Ki was below 100 nM. Moreover, in test [2], the EC50 is below 100 nM.

For `Cc1ncc(COc2cc(F)cc(Oc3ccc(-c4nc([C@H]5C[C@@](C)(O)C5)n5ccnc(N)c45)cc3)c2)cn1` [Compound 13], the Ki in test [1] is below 100 nM. In addition, the EC50 in test [2] was below 100 nM.

`Cc1ncc(COc2cc(F)cc(Oc3ccc(-c4nc(C5CC(O)(CO)C5)n5ccnc(N)c45)cc3)c2)s1` (stereo not shown) [Compound 14]: in test [1], the Ki is below 100 nM. Besides, the EC50 in test [2] was below 100 nM.

As for `Cc1ncc(COc2cc(F)cc(Oc3ccc(-c4nc(C5(C)COC5)n5ccnc(N)c45)cc3)c2)s1` [Compound 15], the Ki in test [1] is below 100 nM. In addition, in test [2], the EC50 is below 100 nM.

`Cc1ncc(COc2cc(F)cc(Oc3ccc(-c4nc([C@H]5C[C@@](C)(O)C5)n5ccnc(N)c45)cc3)c2)s1` [Compound 16]: the inhibition constant (Ki) in test [1] is below 100 nM. The EC50 in test [2] is below 100 nM.

Consider `Cc1ncc(COc2cc(F)cc(Oc3ccc(-c4nc(C5CC(=O)C5)n5ccnc(N)c45)cc3)c2)s1` [Compound 17], for which, in test [1], the Ki was below 100 nM. For the same compound, the EC50 in test [2] is below 100 nM.

As for `Cc1ncc(COc2cc(F)cc(Oc3ccc(-c4nc(CCN5CCCC5)n5ccnc(N)c45)cc3)c2)cn1` [Compound 18], in test [1], the Ki is below 100 nM. In test [2], the EC50 lay in the range of 100 to 1000 nM.

As for `Cc1ncc(COc2cc(F)cc(Oc3ccc(-c4nc(C5CC(O)(CO)C5)n5ccnc(N)c45)cc3)c2)cn1` (stereo not shown) [Compound 19], in test [1], the Ki was below 100 nM. Besides, the EC50 in test [2] is below 100 nM.

For the compound `Cc1ncc(COc2cc(F)cc(Oc3ccc(-c4nc([C@H]5C[C@@H](N6CCN(C)CC6)C5)n5ccnc(N)c45)cc3)c2)s1` [Compound 20], the inhibitory constant (Ki) in test [1] is below 100 nM. Further, in test [2], the EC50 is below 100 nM.

Consider `Cc1ncc(COc2cc(F)cc(Oc3ccc(-c4nc(C5CC(=O)C5)n5ccnc(N)c45)cc3)c2)cn1` [Compound 21], for which the inhibitory constant (Ki) in test [1] was below 100 nM. Moreover, in test [2], the EC50 is below 100 nM.

Regarding `Cc1ncc(COc2cc(F)cc(Oc3ccc(-c4nc([C@@H]5CCCNC5)n5ccnc(N)c45)cc3)c2)cn1` [Compound 22], in test [1], the Ki is below 100 nM. The EC50 in test [2] is below 100 nM.

For `CC(=O)N1CCC[C@@H](c2nc(-c3ccc(Oc4cc(F)cc(OCc5cnc(C)nc5)c4)cc3)c3c(N)nccn23)C1` [Compound 24], the inhibition constant Ki in test [1] is below 100 nM. Besides, the EC50 in test [2] is below 100 nM.

As to `C[C@]1(O)C[C@@H](c2nc(-c3ccc(Oc4cc(F)cc(OCc5ccccc5)c4)cc3)c3c(N)nccn32)C1` [Compound 25], the Ki in test [1] is below 100 nM. Besides, the EC50 in test [2] is below 100 nM.

With `CC(=O)N1CC(c2nc(-c3ccc(Oc4cc(F)cc(OCc5cnc(C)nc5)c4)cc3)c3c(N)nccn23)C1` [Compound 26], the inhibitory constant (Ki) in test [1] is below 100 nM. In test [2], the EC50 is below 100 nM.

As to `Cc1ncc(COc2cc(F)cc(Oc3ccc(-c4nc(C5CNC5)n5ccnc(N)c45)cc3)c2)cn1` [Compound 27], the Ki in test [1] is below 100 nM. For the same compound, the EC50 in test [2] lay within 100 to 1000 nM.

Regarding `Cc1ncc(COc2cc(F)cc(Oc3ccc(-c4nc([C@H]5C[C@@H](O)C5)n5ccnc(N)c45)cc3)c2)cn1` [Compound 29], the EC50 in test [3] and in test [2] was below 100 nM each time.

With `Cc1ncc(COc2cc(F)cc(Oc3ccc(-c4nc(C5CCNCC5)n5ccnc(N)c45)cc3)c2)cn1` [Compound 30], the EC50 in test [3] and in test [2] was below 100 nM in each case.

In the case of `CC(=O)N1CCC(c2nc(-c3ccc(Oc4cc(F)cc(OCc5cnc(C)nc5)c4)cc3)c3c(N)nccn23)CC1` [Compound 31], the EC50 in test [3] and in test [2] was below 100 nM throughout.

For `Cc1ncc(COc2cc(F)cc(Oc3ccc(-c4nc([C@H]5C[C@@H](N6CCOCC6)C5)n5ccnc(N)c45)cc3)c2)cn1` [Compound 33], the EC50 in test [3] and in test [2] was below 100 nM throughout.

For the compound `Cc1ncc(COc2cc(F)cc(Oc3ccc(-c4nc([C@@H]5CCCN(C6COC6)C5)n5ccnc(N)c45)cc3)c2)cn1` [Compound 34], the EC50 in test [3] and in test [2] was below 100 nM in each case.

For `CC(C)c1nc(-c2ccc(Oc3cc(F)cc(OCc4ccc(CO)nc4)c3)cc2)c2c(N)nccn12` [Compound 35], the EC50 in test [3] and in test [2] was below 100 nM in each case.

These data come from patent publication US9822120B2, “Protein kinase inhibitors” (Pharmascience Inc., priority 2013, dated 2017).
